Results: ChEMBL document CHEMBL1201862, “PubChem BioAssay data set” (2004)
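Values below derive from 48-hour exposures of cells grown in 96-well plates, with endpoints linearly interpolated between the two concentrations bracketing the appropriate inhibition level. GI50 marks 50% less growth.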 The source made the active and inactive calls. Cut-off read from the data, not from the text of the source: active = GI50 up to about 1.1 µM and inactive = higher.

Experiments:
Test in all cases: inhibition of tumour cell growth, NCI panel, 48 h
[1] = test system: SNB-78
[2] = test system: M19-MEL
[3] = test system: DLD-1
[4] = test system: KM-20L2
[5] = test system: LXFL 529
[6] = test system: HOP-18
[7] = test system: DMS-273
[8] = test system: DMS-114
[9] = test system: RXF 631

Structure (SMILES) | GI50 [1] | GI50 [2] | GI50 [3] | GI50 [4] | GI50 [5] | GI50 [6] | GI50 [7] | GI50 [8] | GI50 [9]
Nc1nc(Cl)cc(NCCCCCCCCNc2cc(Cl)nc(N)n2)n1 | 71.6 µM (inactive) | 16 µM (inactive) | 10.2 µM (inactive) | 9.48 µM (inactive) | 1.86 µM (inactive) | 27.1 µM (inactive) | 8.79 µM (inactive) | – | –
COc1ccc2c(c1)C(=O)C1CC(=O)CCC21 (stereo not given) | > 100 µM (inactive) | > 100 µM (inactive) | > 100 µM (inactive) | > 100 µM (inactive) | > 100 µM (inactive) | > 100 µM (inactive) | > 100 µM (inactive) | > 100 µM (inactive) | > 100 µM (inactive)
O=C(O)c1c([N+](=O)[O-])cc(C(F)(F)F)cc1[N+](=O)[O-] | > 100 µM (inactive) | > 100 µM (inactive) | – | > 100 µM (inactive) | > 100 µM (inactive) | – | > 100 µM (inactive) | – | > 100 µM (inactive)
O=C1O[C@H](c2ccccc2)[C@@H]2CC3(CCN12)OCCO3 | – | – | – | > 100 µM (inactive) | > 100 µM (inactive) | – | > 100 µM (inactive) | – | > 100 µM (inactive)
CCCCOC(=O)CNC(=O)OC/C=C/C#CC#C/C=C/COC(=O)NCC(=O)OCCCC | > 10 µM (inactive) | > 10 µM (inactive) | > 10 µM (inactive) | > 10 µM (inactive) | > 10 µM (inactive) | > 10 µM (inactive) | – | > 10 µM (inactive) | > 10 µM (inactive)
CC(CCCOC(c1ccccc1)(c1ccccc1)c1ccccc1)OC(=O)Nc1ccccc1 (stereo not given) | 16.4 µM (inactive) | 14.6 µM (inactive) | 13.7 µM (inactive) | 5.12 µM (inactive) | 13.2 µM (inactive) | – | 15.5 µM (inactive) | 12.1 µM (inactive) | –
CC(=O)N1[C@H](C(=O)O)CS[C@H]1c1ccc(F)cc1 | > 100 µM (inactive) | > 100 µM (inactive) | – | – | > 100 µM (inactive) | > 100 µM (inactive) | – | > 100 µM (inactive) | > 100 µM (inactive)
O=C1OC(=O)C23CSCC12C1C=CC3O1 (stereo not given) | – | > 100 µM (inactive) | > 100 µM (inactive) | > 100 µM (inactive) | > 100 µM (inactive) | – | > 100 µM (inactive) | > 100 µM (inactive) | –
N#CC1CC2(C1)OCCS2 (stereo not given) | > 100 µM (inactive) | – | > 100 µM (inactive) | > 100 µM (inactive) | > 100 µM (inactive) | – | > 100 µM (inactive) | – | –
CCC1(C(=O)OC)CCc2c(OC)ccc(OC)c2C1=O (stereo not given) | > 100 µM (inactive) | > 100 µM (inactive) | > 100 µM (inactive) | > 100 µM (inactive) | > 100 µM (inactive) | > 100 µM (inactive) | > 100 µM (inactive) | > 100 µM (inactive) | > 100 µM (inactive)
C/C(CCn1[nH]c(=O)ccc1=O)=N\NC(=O)C(N)=O | > 100 µM (inactive) | > 100 µM (inactive) | > 100 µM (inactive) | > 100 µM (inactive) | > 100 µM (inactive) | > 100 µM (inactive) | > 100 µM (inactive) | > 100 µM (inactive) | –
Cc1c(Cl)cccc1N1C(=O)C(Cl)=C(Cl)C1=O | > 100 µM (inactive) | > 100 µM (inactive) | > 66.8 µM (inactive) | > 100 µM (inactive) | > 75.7 µM (inactive) | > 100 µM (inactive) | > 100 µM (inactive) | > 100 µM (inactive) | –
COc1ccc(/C(C)=N/NC(N)=S)c(OC)c1 | > 100 µM (inactive) | > 100 µM (inactive) | > 100 µM (inactive) | > 100 µM (inactive) | > 100 µM (inactive) | > 100 µM (inactive) | – | 97.1 µM (inactive) | > 100 µM (inactive)
CCOC(=O)c1cn(Cc2ccccc2)c(=O)n1Cc1ccccc1 | > 100 µM (inactive) | > 100 µM (inactive) | > 100 µM (inactive) | > 100 µM (inactive) | > 100 µM (inactive) | > 100 µM (inactive) | > 100 µM (inactive) | 94 µM (inactive) | > 100 µM (inactive)
O=C(O)C1C2CC3CC2CC31 (stereo not given) | > 100 µM (inactive) | – | – | – | > 100 µM (inactive) | – | > 100 µM (inactive) | > 100 µM (inactive) | > 100 µM (inactive)
Clc1ccccc1C1N2CCCCC2[C@@H]2c3[nH]c4ccccc4c3CCN12 (stereo not given in full) | 25.4 µM (inactive) | 14.7 µM (inactive) | 18.9 µM (inactive) | 18.6 µM (inactive) | 31 µM (inactive) | 42 µM (inactive) | 27.4 µM (inactive) | 20 µM (inactive) | –
CC(C)(O)[C@@H]1CC[C@@]2(C)CCCC(O)C2(O)C1 (stereo not given in full) | – | > 100 µM (inactive) | > 100 µM (inactive) | > 100 µM (inactive) | > 100 µM (inactive) | > 100 µM (inactive) | > 100 µM (inactive) | > 100 µM (inactive) | > 100 µM (inactive)
CCOC(=O)C[C@@]12CCCNC1(C)CCc1ccccc12 (stereo not given in full) | – | > 100 µM (inactive) | > 100 µM (inactive) | > 100 µM (inactive) | – | 63.2 µM (inactive) | > 100 µM (inactive) | > 100 µM (inactive) | –
C[C@@H]1C[C@@H]([C@H](O)CC2CC(=O)NC(=O)C2)C(=O)[C@@H](C)C1 [CYCLOHEXIMIDE] | 0.0875 µM (active) | 0.0607 µM (active) | 0.0405 µM (active) | 0.0705 µM (active) | 0.0187 µM (active) | 0.249 µM (active) | 0.0557 µM (active) | 0.102 µM (active) | 0.0248 µM (active)
Nc1ccc(S(=O)(=O)Nc2cnc3ccccc3n2)cc1 [SULFAQUINOXALINE] | > 100 µM (inactive) | > 100 µM (inactive) | > 100 µM (inactive) | > 100 µM (inactive) | > 100 µM (inactive) | > 100 µM (inactive) | > 100 µM (inactive) | > 100 µM (inactive) | > 100 µM (inactive)
